In patent US11253497B2, “Use of derivatives of polyunsaturated fatty acids as medicaments” (Lipopharma Therapeutics, S.L., priority 2009, dated 2022):

Key:
[1] = test system: Spontaneously Hypertensive Rats (SHR); assay: Blood pressure of SHR rats (cuff-tail method); assay type: in vivo, rat; settings: 200 mg/kg day p.o., 30 days, before treatment 214 mmHg
Experimental: (§1) In a separate experimental series, it was studied the effect of D-PUFA molecules of the present invention on blood pressure of SHR rats. In these animals both, blood pressure and levels of apolipoprotein AI (apoA-I) were measured. For these experiments Spontaneously Hypertensive Rats (SHR) were treated for 30 days with vehicle (water control) or compounds of the invention (200 mg/kg day, p.o.). At the end of this period, the animals' blood pressure and serum levels of apoA-I were measured. […] For these experiments, non-invasive methods for determining blood pressure (cuff-tail method) and gene expression for apoA-I (RT-PCR) described in the literature (Terés et al., 2008) were used. The usefulness of the molecules of the present invention for the treatment of cardiovascular diseases is reinforced by its capacity for reducing the levels of serum cholesterol and triglycerides (see below).
(§2) The average values of SHR before treatment were 214 mmHg and 100% respectively.

[2] = test system: breast cancer cells MDA-MB-231; assay: Growth of breast cancer cells MDA-MB-231; assay type: cell-based; settings: 72 hours of incubation
Experimental: (§3) For the experiments shown in FIG. 1, cultured human Non Small Cell Lung Cancer cells (A549) in RPMI 1640 were used, supplemented with 10% foetal bovine serum and antibiotics, at 37° C. and 5% CO2. […] After treatment, cell count was performed and the study of the mechanisms involved in the antitumor activity of compounds was evaluated by flow cytometry. […] These values correspond to averages of three independent experiments.
(§4) These charts show the antitumor efficacy of the compounds of this invention against the growth of breast cancer cells, brain (glioma), and lung cancer. […] The other experimental conditions are identical to those described in the preceding paragraph.

α-synuclein = assay: Expression of α-synuclein in neuronal cultures (cells P19); assay type: cell-based; settings: untreated cells 100%
[3] = Serum cholesterol, triglycerides and glucose in SHR rats (colorimetric); assay type: in vivo, rat; settings: 200 mg/kg daily p.o., 28 days, untreated rats 100%
Experimental: In a separate experimental series, SHR rats were treated with various compounds of the present invention (200 mg/kg daily, 28 days, p.o.) and the levels of cholesterol, triglycerides and glucose in serum were measured by colorimetric methods. It was observed that these compounds induce significant (and in many cases marked) reductions in the levels of these metabolites (Table 16).
Values are expressed as percent, and in untreated (control) rats values were always considered as 100%.

COX-2 = assay: Expression of COX-2 in LPS-stimulated monocytes in culture; assay type: cell-based, human; settings: positive control with LPS 100%
From the text: FIG. 5A also presents a drawing showing the COX-2/COX-1 relationship as % of control (Y axis) for the following compounds (X-axis): OOA (2-hydroxy-oleic acid), OLA (182A1), OALA (183A1), OGLA (183A2), OARA (204A1), OEPA (205A1), ODHA (226A1). […] The reduction of this factor is directly related to the anti-inflammatory medication. The compounds are the same as in the left pane.
(§5) Cyclooxygenase (COX) is an enzyme that can bind to membranes, taking certain lipids from there and catalyze its conversion into molecules that can have inflammatory activity. The binding of this enzyme to membrane lipids is due in part to the membrane lipid structure. The increased activity of COX 1 and 2 isoforms has been associated with the etiopathology of a number of inflammatory diseases by […] arachidonic acid metabolism to produce pro-inflammatory lipid mediators. The D-PUFA compounds of the present invention produced a series of cellular signals that alter the metabolism of arachidonic acid and, as a result, they inhibit the activity and expression of COX in monocytes in culture (Table 14 and FIG. 5A). […] For this purpose, C57BL6/J mice were treated with the various derivatives (200 mg/kg, p.o.,) after inducing an inflammatory reaction in them by intraperitoneal injection of 20 μg of bacterial lipopolysaccharide (LPS).
Inhibition of COX-2 expression in monocytes. Percentages of inhibition (compared to the positive control in the presence of LPS, 100%) of COX-2 protein levels (expression) by the various fatty acid derivatives.

P19 cells = assay: NMDA-induced neuronal death in P19 cells; assay type: cell-based; settings: NMDA alone 100% death, control without NMDA 0%; negative values = proliferation
TNF-α = assay: Production of TNF-α in serum of LPS-injected C57BL6/J mice; assay type: in vivo; settings: LPS 20 μg i.p. (100%), 200 mg/kg p.o.
From the text: as §5

[4] = test system: apolipoprotein AI (apoA-I); assay: Levels of apoA-I in SHR rats (RT-PCR); assay type: in vivo, rat; settings: 200 mg/kg day p.o., 30 days, before treatment 100%
Experimental: as §1, §2

[5] = test system: brain cancer cell (glioma) U118; assay: Brain cancer (glioma) U118 cell growth; assay type: cell-based; settings: 72 hours of incubation
Experimental: For the experiments shown in FIG. 1, cultured human Non Small Cell Lung Cancer cells (A549) in RPMI 1640 were used, supplemented with 10% foetal bovine serum and antibiotics, at 37° C. and 5% CO2. Cells were maintained in culture for 48 hours in the presence or absence of D-PUFAs and PUFAs indicated in Table 2 at a concentration of 250 µM. After treatment, cell count was performed and the study of the mechanisms involved in the antitumor activity of compounds was evaluated by flow cytometry. […] These values correspond to averages of three independent experiments.
as §4

lung cancer cells A549 = assay: Growth of lung cancer cells A549 (IC50); assay type: cell-based, human; settings: 72 hours of incubation
Experimental: as §3, §4

Row | SMILES | Blood pressure [1] | IC50 [2] | Expression of α-synuclein (α-synuclein) | Cholesterol in serum (top number) [3] | Glucose in serum (bottom number) [3] | Triglycerides in serum (central number) [3] | COX-2 protein levels (expression), percentages of inhibition compared to positive control (COX-2) | Neuronal death (P19 cells) after treatment with NMDA (P19 cells) | Production of TNF-α in serum (TNF-α) | Levels of apoA-I [4] | IC50 [5] | IC50 (lung cancer cells A549)
1 | CCCCCC=CCC=CCC=CCCCC(C)C(=O)[O-].[Na+] (stereo not drawn) [183L2] | 194 mm Hg | 173 µM | 73% | 83% | 92% | 79% | 48% | −29% | 91% | 268% | 460 µM | 283 µM
2 | CCC=CCC=CCC=CCCCCCCC(OC=O)C(=O)OCC (stereo not drawn) [183V1] | 199 mm Hg | 326 µM | 87% | 75% | 79% | 70% | 79% | −9% | 84% | 152% | 274 µM | 320 µM
3 | CCCCCC=CCC=CCC=CCCCC(OC=O)C(=O)OCC (stereo not drawn) [183V2] | 198 mm Hg | 241 µM | 89% | 84% | 88% | 92% | 68% | −18% | 87% | 282% | 402 µM | 291 µM
4 | CCCCCC=CCC=CCC=CCC=CCCC(O)C(=O)OP(=O)(OCC)OCC (stereo not drawn) [204F1] | 199 mm Hg | 326 µM | 52% | 76% | 84% | 81% | 41% | −46% | 46% | 163% | 275 µM | 392 µM
5 | CCCCCC=CCC=CCC=CCC=CCCC(C)C(=O)[O-].[Na+] (stereo not drawn) [204L1] | 197 mm Hg | 332 µM | 69% | 83% | 91% | 82% | 47% | −27% | 49% | 188% | 247 µM | 326 µM
6 | CCCCCC=CCC=CCC=CCC=CCCC(OC=O)C(=O)OCC (stereo not drawn) [204V1] | 198 mm Hg | 352 µM | 82% | 84% | 87% | 81% | 43% | −11% | 42% | 161% | 345 µM | 326 µM
7 | CCC=CCC=CCC=CCC=CCC=CCCC(O)C(=O)OP(=O)(OCC)OCC (stereo not drawn) [205F1] | 195 mm Hg | 275 µM | 57% | 71% | 82% | 83% | 47% | −44% | 80% | 319% | 498 µM | 338 µM
